Structures can show the parent of a compound that is named as a salt.
Tests used:
EP1 receptors [1] = biological target: T1, EP1 receptors (Homo sapiens, UniProt P34995); experiment: human EP1 calcium mobilisation assay (CHO-K1 cells, FLIPR, PGE2); format: cell-based; set-up: expressed in transfected cells; host or cells: CHO-K1 cells, pCIN vector; settings: free bases or sodium salts; averages of a number of experiments; read-out: functional pKi value, human EP1 calcium mobilisation assay (converted)
T1 sequence (P34995 1-402): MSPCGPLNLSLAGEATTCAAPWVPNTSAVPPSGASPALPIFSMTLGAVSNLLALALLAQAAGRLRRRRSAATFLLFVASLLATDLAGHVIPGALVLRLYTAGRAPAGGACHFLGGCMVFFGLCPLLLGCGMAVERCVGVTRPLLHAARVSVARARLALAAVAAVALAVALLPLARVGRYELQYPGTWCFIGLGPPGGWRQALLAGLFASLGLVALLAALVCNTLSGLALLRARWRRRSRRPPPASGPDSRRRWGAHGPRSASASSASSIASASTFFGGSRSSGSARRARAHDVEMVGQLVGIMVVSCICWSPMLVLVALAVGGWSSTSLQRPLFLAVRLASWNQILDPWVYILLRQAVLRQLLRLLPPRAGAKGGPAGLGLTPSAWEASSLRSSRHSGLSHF
Method: Briefly, the antagonist properties of compounds are assessed by their ability to inhibit the mobilisation of intracellular calcium ([Ca^2+]i) in response to activation of EP1 or EP3 receptors by the natural agonist hormone prostaglandin E2 (PGE2). Increasing concentrations of antagonist reduce the amount of calcium that a given concentration of PGE2 can mobilise. The net effect is to displace the PGE2 concentration-effect curve to higher concentrations of PGE2. The amount of calcium produced is assessed using a calcium-sensitive fluorescent dye such as Fluo-4, AM and a suitable instrument such as a Fluorimetric Imaging Plate Reader (FLIPR). Increasing amounts of [Ca^2+]i produced by receptor activation increase the amount of fluorescence produced by the dye and give rise to an increasing signal. The signal may be detected using the FLIPR instrument and the data generated may be analysed with suitable curve-fitting software.
The human EP1 or EP3 calcium mobilisation assay (hereafter referred to as ‘the calcium assay’) utilises Chinese hamster ovary-K1 (CHO-K1) cells into which a stable (pCIN; BioTechniques 20 (1996): 102-110) vector containing either EP1 or EP3 cDNA has previously been transfected. Cells are cultured in suitable flasks containing culture medium such as DMEM:F-12 supplemented with 10% v/v foetal calf serum, 2 mM L-glutamine, 0.25 mg/ml geneticin, 100 μM flurbiprofen and 10 µg/ml puromycin. For assay, cells are harvested using a proprietary reagent that dislodges cells such as Versene. Cells are re-suspended in a suitable quantity of fresh culture media for introduction into a 384-well plate. Following incubation for 24 hours at 37° C. the culture media is replaced with a medium containing Fluo-4 and the detergent pluronic acid, and a further incubation takes place. Concentrations of compounds are then added to the plate in order to construct concentration-effect curves. This may be performed on the FLIPR in order to assess the agonist properties of the compounds. Concentrations of PGE2 are then added to the plate in order to assess the antagonist properties of the compounds. The data so generated may be analysed by means of a computerised curve-fitting routine. The concentration of compound that elicits a half-maximal inhibition of the calcium mobilisation induced by PGE2 (pIC50) may then be estimated.

EP1 receptors [2] = biological target: T1, EP1 receptors; experiment: Binding assay for the human prostanoid EP1 receptor (competition with [3H]-PGE2); set-up: expressed in transfected cells; host or cells: CHO-K1 cells, membrane fraction; settings: [3H]-PGE2 competition; averages of a number of experiments; read-out: pIC50 value, binding assay for the human prostanoid EP1 receptor (converted)
Summary of the method: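 Competition against 3 nM (final) tritiated PGE2 at 30° C for 30 min, pH 6 MES assay buffer, using membranes of stably transfected CHO-K1 cells. Filter-retained counts by scintillation; nonlinear curve fitting gives concentration inhibiting 50% of specific binding.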

SMILES	Ki (EP1 receptors [1]) [nM]	IC50 (EP1 receptors [2]) [nM]
CC(C)COc1ccc(Cl)cc1Nc1nc(-c2nc3ccc(CN4CCN(C)CC4)cc3[nH]2)cs1 [Example 183, N-{5-Chloro-2-[(2-methylpropyl)oxy]phenyl}-4-{5-[(4-methyl-1-piperazinyl)methyl]-1H-benzimidazol-2-yl}-1,3-thiazol-2-amine]	< 1000	≤ 31.6
Clc1ccc(OCc2ccccc2)c(Cc2nc(-c3nc4ccc(CN5CCCC5)cc4[nH]3)co2)c1 [Example 173, 2-[2-({5-chloro-2-[(phenylmethyl)oxy]phenyl}-methyl)-1,3-oxazol-4-yl]-5-(1-pyrrolidinylmethyl)-1H-benzimidazolehydrochloride]	< 1000	≤ 1000
CN1CCN(Cc2ccc(C(=O)Nc3csc(Cc4cc(Cl)ccc4OCc4ccccc4)n3)cc2)CC1 [Example 114, N-[2-({5-chloro-2-[(phenylmethyl)oxy]-phenyl}methyl)-1,3-thiazol-4-yl]-4-[(4-methyl-1-piperazinyl)methyl]-benzamide]	< 1000	≤ 1000
O=C(O)Cc1coc(-c2cc(Cl)ccc2OCc2ccc(F)cc2Cl)n1 [Example 81, [2-(5-chloro-2-{[(2-chloro-4-fluorophenyl)methyl]oxy}phenyl)-1,3-oxazol-4-yl]acetic acid]	> 1000	≤ 1000
CC(C(=O)O)c1csc(-c2cc(Br)ccc2OCc2ccccc2)n1 (stereo not drawn) [Example 47, Sodium 2-(2-{5-bromo-2-[(phenylmethyl)oxy]phenyl}-1,3-thiazol-4-yl)propanoate]	< 1000	≤ 1000
CC(C)(C)OC(=O)Nc1csc(Cc2cc(Cl)ccc2OCc2ccccc2)n1 [Example 110, 1,1-Dimethylethyl [2-({5-chloro-2-[(phenylmethyl)oxy]phenyl}methyl)-1,3-thiazol-4-yl]carbamate]	> 1000	≤ 1000
CC(C)COc1ccc(Cl)cc1Nc1nc(-c2nc3ccc(CN(C)C)cc3[nH]2)cs1 [Example 180, N-{5-Chloro-2-[(2-methylpropyl)oxy]phenyl}-4-{5-[(dimethylamino)methyl]-1H-benzimidazol-2-yl}-1,3-thiazol-2-aminehydrochloride]	> 1000	≤ 31.6
O=C(NCc1ccccn1)c1csc(Cc2cc(Cl)ccc2OCc2ccccc2)n1 [Example 94, 2-({5-Chloro-2-[(phenylmethyl)oxy]phenyl}methyl)-N-(2-pyridinylmethyl)-1,3-thiazole-4-carboxamide]	< 1000	≤ 1000
Clc1ccc(OCc2ccccc2)c(Cc2nc(-c3nc4ncc(Br)cc4[nH]3)cs2)c1 [Example 134, 6-Bromo-2-[2-({5-chloro-2-[(phenylmethyl)oxy]phenyl}methyl)-1,3-thiazol-4-yl]-1H-imidazo[4,5-b]pyridine]	< 1000	≤ 1000
CC(C)COc1ccc(Cl)cc1Cc1nc(-c2nc3nccnc3[nH]2)cs1 [Example 136, 2-[2-({5-Chloro-2-[(2-methyl-propyl)oxy]-phenyl}methyl)-1,3-thiazol-4-yl]-1H-imidazo[4,5-b]pyrazinehydrochloride]	≤ 31.6	≤ 31.6
CC(C)COc1ccc(Cl)cc1Cc1nc(-c2nc3ccc(CN4CCCC4)cc3[nH]2)co1 [Example 176, 2-[2-({5-chloro-2-[(2-methylpropyl)oxy]phenyl}methyl)-1,3-oxazol-4-yl]-5-(1-pyrrolidinylmethyl)-1H-benzimidazoledihydrochloride]	< 1000	≤ 31.6
CC(C)COc1ccc(Cl)cc1Cc1nc(-c2nc3ccc(CCO)cc3[nH]2)cs1 [Example 154, 2-{2-[2-({5-Chloro-2-[(2-methylpropyl)oxy]phenyl}methyl)-1,3-thiazol-4-yl]-1H-benzimidazol-5-yl}ethanol]	≤ 31.6	≤ 31.6
O=C(NCc1cccnc1)c1csc(Cc2cc(Cl)ccc2OCc2ccccc2)n1 [Example 95, 2-({5-Chloro-2-[(phenylmethyl)oxy]phenyl}methyl)-N-(3-pyridinylmethyl)-1,3-thiazole-4-carboxamide]	< 1000	≤ 1000
O=C(NS(=O)(=O)c1ccccc1)c1csc(Cc2cc(Cl)ccc2OCc2ccc(Cl)cc2F)n1 [Example 105, 2-[(5-Chloro-2-{[(4-chloro-2-fluorophenyl)methyl]-oxy}phenyl)methyl]-N-(phenylsulfonyl)-1,3-thiazole-4-carboxamide]	< 1000	≤ 31.6
CC(C)COc1ccc(Cl)cc1Cc1nc(-c2nc3ccc(CN(C)C)cc3[nH]2)co1 [Example 175, ({2-[2-({5-Chloro-2-[(2-methylpropyl)oxy]phenyl}methyl)-1,3-oxazol-4-yl]-1H-benzimidazol-5-yl}methyl)dimethylaminedihydrochloride]	< 1000	≤ 31.6
O=C(NS(=O)(=O)c1ccccc1)c1csc(Cc2cc(Cl)ccc2OCc2ccccc2F)n1 [Example 103, 2-[(5-Chloro-2-{[(2-fluorophenyl)methyl]-oxy}phenyl)methyl]-N-(phenylsulfonyl)-1,3-thiazole-4-carboxamide]	< 1000	≤ 31.6
O=C(NS(=O)(=O)c1ccccc1)c1csc(Cc2cc(Cl)ccc2OCc2cc(F)c(F)cc2F)n1 [Example 106, 2-[(5-Chloro-2-{[(2,4,5-trifluorophenyl)methyl]oxy}phenyl)methyl]-N-(phenylsulfonyl)-1,3-thiazole-4-carboxamide]	≤ 31.6	≤ 31.6
O=C(Nc1nnn[nH]1)c1csc(Cc2cc(Cl)ccc2OCc2ccccc2)n1 [Example 98, 2-({5-Chloro-2-[(phenylmethyl)oxy]phenyl}methyl)-N-1H-tetrazol-5-yl-1,3-thiazole-4-carboxamide]	≤ 31.6	≤ 1000
O=C(Nc1ccc(CN2CCCCC2)cc1)c1csc(Cc2cc(Cl)ccc2OCc2ccccc2)n1 [Example 121, 2-({5-Chloro-2-[(phenylmethyl)oxy]phenyl}-methyl)-N-[4-(1-piperidinylmethyl)phenyl]-1,3-thiazole-4-carboxamidehydrochloride]	> 1000	≤ 1000
CN(C)Cc1ccc2nc(-c3coc(Cc4cc(Cl)ccc4OCc4ccccc4)n3)[nH]c2c1 [Example 170, ({2-[2-({5-chloro-2-[(phenylmethyl)oxy]phenyl}-methyl)-1,3-oxazol-4-yl]-1H-benzimidazol-5-yl}methyl)dimethylaminehydrochloride]	< 1000	≤ 1000
Clc1ccc(OCc2ccccc2)c(Cc2nc(-c3nc4cc5cn[nH]c5cc4[nH]3)cs2)c1 [Example 150, 6-[2-({5-Chloro-2-[(phenylmethyl)oxy]phenyl}methyl)-1,3-thiazol-4-yl]-1,5-dihydroimidazo[4,5-f]indazolehydrochloride]	< 1000	≤ 31.6
CN1CCN(Cc2ccc3nc(-c4coc(Cc5cc(Cl)ccc5OCc5ccccc5)n4)[nH]c3c2)CC1 [Example 171, 2-[2-({5-chloro-2-[(phenylmethyl)oxy]phenyl}-methyl)-1,3-oxazol-4-yl]-5-[(4-methyl-1-piperazinyl)methyl]-1H-benzimidazolehydrochloride]	< 1000	≤ 1000
CNC(=O)c1csc(Cc2cc(Cl)ccc2OCc2ccccc2)n1 [Example 97, 2-({5-Chloro-2-[(phenylmethyl)oxy]phenyl}methyl)-N-methyl-1,3-thiazole-4-carboxamide]	> 1000	≤ 1000
CC(C)COc1ccc(Cl)cc1Cc1nc(NC(=O)OC(C)(C)C)cs1 [Example 111, 1,1-Dimethylethyl [2-({5-chloro-2-[(2-methylpropyl)oxy]phenyl}methyl)-1,3-thiazol-4-yl]carbamate]	< 1000	≤ 1000

Source: patent US20080207708A1, “Oxazole and Thiazole Compounds and Their Use in the Treatment of Pge2 Mediated Disorders” (GLAXO GROUP LIMITED, priority 2005, published 2008)
